This note sets out measurements from patent US11173151B2, “Substituted triazole derivatives and uses thereof” (BAYER AKTIENGESELLSCHAFT, priority 2017, dated 2021).

pIC50: −log10 of the molar value.

The target of one test is T1, human V1a receptor (Homo sapiens, UniProt P37288).
T1 construct: expressed in transfected cells; host or cells: CHO K1 (ATCC), also stably transfected with a modified aequorin
The test is described as follows: Cellular in vitro assay for determining vasopressin receptor activity, V1a receptor cell line (CHO, aequorin luminescence). The note with it: for pIC50: CHO cell line transfected with human V1a receptor, [Arg]-vasopressin at EC50 concentration, read-out: IC50 hV1a; for ratio IC50 hV2/hV1a: selectivity ratio IC50 hV2 / IC50 hV1a. Type of test: cell-based. The procedure, abridged: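 IC50 from inhibition of [Arg]-vasopressin (EC50 concentration)-evoked aequorin luminescence in CHO K1 cells, with 10-min compound pretreatment.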

The target in the next test is T2, human V2 receptor (Homo sapiens, UniProt P30518).
T2 construct: expressed in transfected cells; host or cells: CHO K1 (ATCC) expressing firefly luciferase under a CRE-responsive promoter
Nature of the test: Cellular in vitro assay for determining vasopressin receptor activity, V2 receptor cell line (CHO, CRE-luciferase). Type of test: cell-based. The note with it: CHO cell line transfected with human V2 receptor; [Arg8]-vasopressin at EC50 concentration, 3 hours; read-out: IC50 hV2.

T1 sequence (P37288 whole entry): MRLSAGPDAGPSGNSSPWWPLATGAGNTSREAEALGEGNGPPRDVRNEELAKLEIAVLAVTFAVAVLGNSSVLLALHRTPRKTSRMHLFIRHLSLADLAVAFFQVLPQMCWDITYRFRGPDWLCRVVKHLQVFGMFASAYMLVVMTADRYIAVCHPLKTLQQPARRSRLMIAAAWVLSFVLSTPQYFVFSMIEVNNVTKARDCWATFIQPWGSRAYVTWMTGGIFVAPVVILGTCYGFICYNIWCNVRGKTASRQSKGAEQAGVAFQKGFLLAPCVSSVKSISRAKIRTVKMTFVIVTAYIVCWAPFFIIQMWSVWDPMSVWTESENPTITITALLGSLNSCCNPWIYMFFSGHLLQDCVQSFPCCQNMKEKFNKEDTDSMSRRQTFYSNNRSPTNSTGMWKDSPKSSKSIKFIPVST
T2 sequence (P30518 whole entry): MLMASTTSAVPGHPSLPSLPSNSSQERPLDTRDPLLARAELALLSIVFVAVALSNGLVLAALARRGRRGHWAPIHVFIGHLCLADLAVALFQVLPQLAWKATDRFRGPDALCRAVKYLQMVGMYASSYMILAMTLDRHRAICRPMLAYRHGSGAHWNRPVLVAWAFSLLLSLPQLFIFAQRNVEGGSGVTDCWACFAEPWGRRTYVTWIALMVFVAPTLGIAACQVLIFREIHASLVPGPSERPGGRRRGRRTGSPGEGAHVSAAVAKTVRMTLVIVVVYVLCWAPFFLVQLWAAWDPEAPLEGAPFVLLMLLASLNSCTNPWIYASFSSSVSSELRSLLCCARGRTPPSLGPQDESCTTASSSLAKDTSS

Consider `CN(C)C(=O)c1ccccc1-n1cnc(Cn2nc(-c3ccc(Cl)cc3)n(C[C@H](O)C(F)(F)F)c2=O)n1` [Example 264, 2-[3-({3-(4-Chlorophenyl)-5-oxo-4-[(2S)-3,3,3-trifluoro-2-hydroxypropyl]-4,5-dihydro-1H-1,2,4-triazol-1-yl}methyl)-1H-1,2,4-triazol-1-yl]-N,N-dimethylbenzamide], for which the negative logarithm of the IC50 (pIC50) is 8.61 at human V1a receptor and 5.90 at human V2 receptor. At human V1a receptor, the “ratio IC50 hV2/hV1a” value came out at 512.2.
As for `O=C1CCN(C(=O)c2ccccc2-n2cnc(Cn3nc(-c4ccc(Cl)cc4)n(C[C@H](O)C(F)(F)F)c3=O)n2)CCN1` [Example 265, 1-{2-[3-({3-(4-Chlorophenyl)-5-oxo-4-[(2S)-3,3,3-trifluoro-2-hydroxypropyl]-4,5-dihydro-1H-1,2,4-triazol-1-yl}methyl)-1H-1,2,4-triazol-1-yl]benzoyl}-1,4-diazepan-5-one], at human V1a receptor, the negative logarithm of the IC50 (pIC50) was 7.46 and the “ratio IC50 hV2/hV1a” value is listed as 255.1. Besides, the negative-log IC50 (pIC50) at human V2 receptor was 5.06.
Taken in the same sequence, the figures for `CC1CCN(C(=O)c2ccccc2-n2cnc(Cn3nc(-c4ccc(Cl)cc4)n(C[C@H](O)C(F)(F)F)c3=O)n2)C(C)C1` (stereo partly drawn) [Example 266, 5-(4-Chlorophenyl)-2-[(1-{2-[(2,4-dimethylpiperidin-1-yl)carbonyl]phenyl}-1H-1,2,4-triazol-3-yl)methyl]-4-[(2S)-3,3,3-trifluoro-2-hydroxypropyl]-2,4-dihydro-3H-1,2,4-triazol-3-one] were 8.41, 223.4 and 6.07.
For `CC1CN(C(=O)c2ccccc2-n2cnc(Cn3nc(-c4ccc(Cl)cc4)n(C[C@H](O)C(F)(F)F)c3=O)n2)CCN1C` (stereo partly drawn) [Example 267], in that order: 7.47, 119.4 and 5.40.
Taken in the same sequence, the figures for `O=C(c1ccccc1-n1cnc(Cn2nc(-c3ccc(Cl)cc3)n(C[C@H](O)C(F)(F)F)c2=O)n1)N1CCC(F)(F)C1` [Example 268, 5-(4-Chlorophenyl)-2-[(1-{2-[(3,3-difluoropyrrolidin-1-yl)carbonyl]phenyl}-1H-1,2,4-triazol-3-yl)methyl]-4-[(2S)-3,3,3-trifluoro-2-hydroxypropyl]-2,4-dihydro-3H-1,2,4-triazol-3-one] were 8.44, 265.8 and 6.01.
Consider `COC1CCN(C(=O)c2ccccc2-n2cnc(Cn3nc(-c4ccc(Cl)cc4)n(C[C@H](O)C(F)(F)F)c3=O)n2)CC1` [Example 271, 5-(4-Chlorophenyl)-2-[(1-{2-[(4-methoxypiperidin-1-yl)carbonyl]phenyl}-1H-1,2,4-triazol-3-yl)methyl]-4-[(2S)-3,3,3-trifluoro-2-hydroxypropyl]-2,4-dihydro-3H-1,2,4-triazol-3-one], for which the results for the negative-log IC50 (pIC50) on human V1a receptor and on human V2 receptor were 7.84 and 5.46, respectively. The “ratio IC50 hV2/hV1a” value at human V1a receptor was found to be 241.4.
For `CN(CC(F)(F)F)C(=O)c1ccccc1-n1cnc(Cn2nc(-c3ccc(Cl)cc3)n(C[C@H](O)C(F)(F)F)c2=O)n1` [Example 272, 2-[3-({3-(4-Chlorophenyl)-5-oxo-4-[(2S)-3,3,3-trifluoro-2-hydroxypropyl]-4,5-dihydro-1H-1,2,4-triazol-1-yl}methyl)-1H-1,2,4-triazol-1-yl]-N-methyl-N-(2,2,2-trifluoroethyl)benzamide], in that order: 8.23, 5.76 and 299.1.
Taken in the same sequence, the figures for `CN1CC2CC1CN2C(=O)c1ccccc1-n1cnc(Cn2nc(-c3ccc(Cl)cc3)n(C[C@H](O)C(F)(F)F)c2=O)n1` (stereo partly drawn) [Example 273, 5-(4-Chlorophenyl)-2-[(1-{2-[(5-methyl-2,5-diazabicyclo[2.2.1]hept-2-yl)carbonyl]phenyl}-1H-1,2,4-triazol-3-yl)methyl]-4-[(2S)-3,3,3-trifluoro-2-hydroxypropyl]-2,4-dihydro-3H-1,2,4-triazol-3-one] were 7.89, 5.21 and 476.9.
Taken in the same sequence, the figures for `CN(C(=O)c1ccccc1-n1cnc(Cn2nc(-c3ccc(Cl)cc3)n(C[C@H](O)C(F)(F)F)c2=O)n1)C1CCCC1` [Example 276, 2-[3-({3-(4-Chlorophenyl)-5-oxo-4-[(2S)-3,3,3-trifluoro-2-hydroxypropyl]-4,5-dihydro-1H-1,2,4-triazol-1-yl}methyl)-1H-1,2,4-triazol-1-yl]-N-cyclopentyl-N-methylbenzamide] were 8.57, 5.94 and 425.9.
As to `CC1(C)CCN(C(=O)c2ccccc2-n2cnc(Cn3nc(-c4ccc(Cl)cc4)n(C[C@H](O)C(F)(F)F)c3=O)n2)CC1` [Example 277, 5-(4-Chlorophenyl)-2-[(1-{2-[(4,4-dimethylpiperidin-1-yl)carbonyl]phenyl}-1H-1,2,4-triazol-3-yl)methyl]-4-[(2S)-3,3,3-trifluoro-2-hydroxypropyl]-2,4-dihydro-3H-1,2,4-triazol-3-one], on human V1a receptor, the pIC50 was 8.28 and the “ratio IC50 hV2/hV1a” value was 339.6. Moreover, at human V2 receptor, the negative logarithm of the IC50 (pIC50) is 5.74.
Taken in the same sequence, the figures for `O=C(c1ccccc1-n1cnc(Cn2nc(-c3ccc(Cl)cc3)n(C[C@H](O)C(F)(F)F)c2=O)n1)N1CCCCO1` [Example 278, 5-(4-Chlorophenyl)-2-({1-[2-(1,2-oxazinan-2-ylcarbonyl)phenyl]-1H-1,2,4-triazol-3-yl}methyl)-4-[(2S)-3,3,3-trifluoro-2-hydroxypropyl]-2,4-dihydro-3H-1,2,4-triazol-3-one] were 8.80, 253.1 and 6.39.
`O=C1CN(C(=O)c2ccccc2-n2cnc(Cn3nc(-c4ccc(Cl)cc4)n(C[C@H](O)C(F)(F)F)c3=O)n2)CN1` [Example 279, 5-(4-Chlorophenyl)-2-[(1-{2-[(4-oxoimidazolidin-1-yl)carbonyl]phenyl}-1H-1,2,4-triazol-3-yl)methyl]-4-[(2S)-3,3,3-trifluoro-2-hydroxypropyl]-2,4-dihydro-3H-1,2,4-triazol-3-one]: the pIC50 at human V1a receptor was 7.56; on human V2 receptor, 5.57. Besides, the “ratio IC50 hV2/hV1a” value at human V1a receptor is listed as 98.2.
For `CC1(C)COCCN1C(=O)c1ccccc1-n1cnc(Cn2nc(-c3ccc(Cl)cc3)n(C[C@H](O)C(F)(F)F)c2=O)n1` [Example 281, 5-(4-Chlorophenyl)-2-[(1-{2-[(3,3-dimethylmorpholin-4-yl)carbonyl]phenyl}-1H-1,2,4-triazol-3-yl)methyl]-4-[(2S)-3,3,3-trifluoro-2-hydroxypropyl]-2,4-dihydro-3H-1,2,4-triazol-3-one], in that order: 8.95, 5.55 and 2500.0.
Taken in the same sequence, the figures for `O=C(c1ccccc1-n1cnc(Cn2nc(-c3ccc(Cl)cc3)n(C[C@H](O)C(F)(F)F)c2=O)n1)N1CCCOCC1` [Example 284, 5-(4-Chlorophenyl)-2-({1-[2-(1,4-oxazepan-4-ylcarbonyl)phenyl]-1H-1,2,4-triazol-3-yl}methyl)-4-[(2S)-3,3,3-trifluoro-2-hydroxypropyl]-2,4-dihydro-3H-1,2,4-triazol-3-one] were 8.70, 6.01 and 485.0.
For `O=C(c1ccccc1-n1cnc(Cn2nc(-c3ccc(Cl)cc3)n(C[C@H](O)C(F)(F)F)c2=O)n1)N1CCCO1` [Example 285, 5-(4-Chlorophenyl)-2-({1-[2-(1,2-oxazolidin-2-ylcarbonyl)phenyl]-1H-1,2,4-triazol-3-yl}methyl)-4-[(2S)-3,3,3-trifluoro-2-hydroxypropyl]-2,4-dihydro-3H-1,2,4-triazol-3-one], in that order: 8.72, 6.36 and 231.6.
With `CN(C)C1CN(C(=O)c2ccccc2-n2cnc(Cn3nc(-c4ccc(Cl)cc4)n(C[C@H](O)C(F)(F)F)c3=O)n2)C1` [Example 286, 5-(4-Chlorophenyl)-2-{[1-(2-{[3-(dimethylamino)azetidin-1-yl]carbonyl}phenyl)-1H-1,2,4-triazol-3-yl]methyl}-4-[(2S)-3,3,3-trifluoro-2-hydroxypropyl]-2,4-dihydro-3H-1,2,4-triazol-3-one], on human V1a receptor, the pIC50 is 7.84 and the “ratio IC50 hV2/hV1a” value is recorded as 172.4. Moreover, the pIC50 at human V2 receptor was 5.60.
For `CC1(C)CN(C(=O)c2ccccc2-n2cnc(Cn3nc(-c4ccc(Cl)cc4)n(C[C@H](O)C(F)(F)F)c3=O)n2)CCO1` [Example 287, 5-(4-Chlorophenyl)-2-[(1-{2-[(2,2-dimethylmorpholin-4-yl)carbonyl]phenyl}-1H-1,2,4-triazol-3-yl)methyl]-4-[(2S)-3,3,3-trifluoro-2-hydroxypropyl]-2,4-dihydro-3H-1,2,4-triazol-3-one], in that order: 8.24, 386.0 and 5.66.
For `CN1CCN(C(=O)c2ccccc2-n2cnc(Cn3nc(-c4ccc(Cl)cc4)n(C[C@H](O)C(F)(F)F)c3=O)n2)CC1=O` [Example 288, 4-{2-[3-({3-(4-Chlorophenyl)-5-oxo-4-[(2S)-3,3,3-trifluoro-2-hydroxypropyl]-4,5-dihydro-1H-1,2,4-triazol-1-yl}methyl)-1H-1,2,4-triazol-1-yl]benzoyl}-1-methylpiperazin-2-one], in that order: 7.34, 92.4 and 5.37.

The term pIC50 denotes the IC50 on a negative log10 scale, so that one unit is a factor of ten.
